One may read the IC50 as the point on the concentration scale where inhibition reaches its midpoint.

For one experiment, the target named is JH2 domain of human Tyk2 (Homo sapiens (Human), UniProt P29597). Kind of experiment: JH2 Biochemical Assay (TR-FRET probe displacement). Type of experiment: binding. Background: Time-resolved FRET reads energy transfer from a long-lived donor to a nearby acceptor.
A further experiment addresses Tyk2 (Homo sapiens (Human), UniProt P29597). As to the kind of experiment: pSTAT4 Cell Assay (MSD, NK92 cells). Type of experiment: cell-based.
In another experiment the target is JAK2 (Homo sapiens (Human), UniProt O60674). Kind of experiment: pSTAT5 Cell Assay (MSD, TF1 cells). The format is cell-based. A digest of the protocol:
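Serum-starved TF1 cells were pretreated with compound for 1 h (10-point four-fold series from 10 μM), then stimulated with 30 ng/mL IL-3 for 15 min. pSTAT5 in lysates was measured by MSD immunoassay. IC50 came from a 4-parameter logistic fit.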

The target of the next experiment is JAK1 (Homo sapiens (Human), UniProt P23458). As to the kind of experiment: pSTAT3 Cell Assay (MSD, TF1 cells). The format is cell-based. A digest of the protocol:
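Serum-starved TF1 cells were pretreated with compound for 1 hour (10-point, four-fold dilutions from 10 μM), then stimulated with IL-6 for 15 minutes. Lysates were assayed for pSTAT3 by MSD with anti-STAT3 antibodies; IC50 came from a 4-parameter logistic fit of normalized percent activity.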

Setting [1] is: TR-FRET probe displacement, JH2 domain of human Tyk2.
The mark [2] stands for this setting: JH2 domain of human Tyk2, TR-FRET probe displacement.
[3] abbreviates: TR-FRET probe displacement, JH2 domain.

Where two headings read alike, the source gives them in different places.

Chain of JH2 domain of human Tyk2 (P29597 575-876): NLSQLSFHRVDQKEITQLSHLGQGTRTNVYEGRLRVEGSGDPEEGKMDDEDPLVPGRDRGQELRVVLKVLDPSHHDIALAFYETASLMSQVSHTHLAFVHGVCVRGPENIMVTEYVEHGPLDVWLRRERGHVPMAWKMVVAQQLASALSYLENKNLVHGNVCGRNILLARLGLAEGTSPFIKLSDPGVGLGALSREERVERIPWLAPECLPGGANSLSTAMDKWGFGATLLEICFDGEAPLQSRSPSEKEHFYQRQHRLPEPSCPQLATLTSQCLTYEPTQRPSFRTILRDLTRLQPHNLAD
Chain of JAK2 (O60674 whole entry): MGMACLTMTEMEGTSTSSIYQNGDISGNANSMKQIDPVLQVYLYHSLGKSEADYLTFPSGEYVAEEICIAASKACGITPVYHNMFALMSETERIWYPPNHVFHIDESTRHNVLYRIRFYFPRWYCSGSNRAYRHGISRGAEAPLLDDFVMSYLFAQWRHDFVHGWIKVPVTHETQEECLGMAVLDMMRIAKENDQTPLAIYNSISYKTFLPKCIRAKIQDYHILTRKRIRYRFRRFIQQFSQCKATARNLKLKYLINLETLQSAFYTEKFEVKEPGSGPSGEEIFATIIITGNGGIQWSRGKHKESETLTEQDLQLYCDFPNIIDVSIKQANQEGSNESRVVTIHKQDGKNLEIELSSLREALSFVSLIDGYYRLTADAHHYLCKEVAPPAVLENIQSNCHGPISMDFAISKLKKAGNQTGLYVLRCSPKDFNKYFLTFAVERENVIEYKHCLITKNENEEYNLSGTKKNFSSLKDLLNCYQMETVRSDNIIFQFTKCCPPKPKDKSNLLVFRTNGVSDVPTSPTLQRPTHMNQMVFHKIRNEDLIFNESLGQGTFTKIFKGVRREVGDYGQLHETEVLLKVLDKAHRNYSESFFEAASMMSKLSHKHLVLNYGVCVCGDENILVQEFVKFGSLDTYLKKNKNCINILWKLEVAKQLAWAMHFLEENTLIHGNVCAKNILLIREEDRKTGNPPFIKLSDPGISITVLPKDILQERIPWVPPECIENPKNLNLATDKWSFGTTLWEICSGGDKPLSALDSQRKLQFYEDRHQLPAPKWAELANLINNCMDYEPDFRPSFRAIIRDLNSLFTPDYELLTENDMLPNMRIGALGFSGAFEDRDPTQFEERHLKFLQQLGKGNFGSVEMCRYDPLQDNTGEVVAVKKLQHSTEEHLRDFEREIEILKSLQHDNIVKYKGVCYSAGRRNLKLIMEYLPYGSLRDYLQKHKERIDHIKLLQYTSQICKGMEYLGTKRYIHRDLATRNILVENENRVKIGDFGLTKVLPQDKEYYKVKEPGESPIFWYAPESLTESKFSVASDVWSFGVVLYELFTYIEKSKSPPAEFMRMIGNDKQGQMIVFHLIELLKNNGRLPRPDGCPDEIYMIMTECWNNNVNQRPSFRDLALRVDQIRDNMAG
Chain of Tyk2 (P29597 whole entry): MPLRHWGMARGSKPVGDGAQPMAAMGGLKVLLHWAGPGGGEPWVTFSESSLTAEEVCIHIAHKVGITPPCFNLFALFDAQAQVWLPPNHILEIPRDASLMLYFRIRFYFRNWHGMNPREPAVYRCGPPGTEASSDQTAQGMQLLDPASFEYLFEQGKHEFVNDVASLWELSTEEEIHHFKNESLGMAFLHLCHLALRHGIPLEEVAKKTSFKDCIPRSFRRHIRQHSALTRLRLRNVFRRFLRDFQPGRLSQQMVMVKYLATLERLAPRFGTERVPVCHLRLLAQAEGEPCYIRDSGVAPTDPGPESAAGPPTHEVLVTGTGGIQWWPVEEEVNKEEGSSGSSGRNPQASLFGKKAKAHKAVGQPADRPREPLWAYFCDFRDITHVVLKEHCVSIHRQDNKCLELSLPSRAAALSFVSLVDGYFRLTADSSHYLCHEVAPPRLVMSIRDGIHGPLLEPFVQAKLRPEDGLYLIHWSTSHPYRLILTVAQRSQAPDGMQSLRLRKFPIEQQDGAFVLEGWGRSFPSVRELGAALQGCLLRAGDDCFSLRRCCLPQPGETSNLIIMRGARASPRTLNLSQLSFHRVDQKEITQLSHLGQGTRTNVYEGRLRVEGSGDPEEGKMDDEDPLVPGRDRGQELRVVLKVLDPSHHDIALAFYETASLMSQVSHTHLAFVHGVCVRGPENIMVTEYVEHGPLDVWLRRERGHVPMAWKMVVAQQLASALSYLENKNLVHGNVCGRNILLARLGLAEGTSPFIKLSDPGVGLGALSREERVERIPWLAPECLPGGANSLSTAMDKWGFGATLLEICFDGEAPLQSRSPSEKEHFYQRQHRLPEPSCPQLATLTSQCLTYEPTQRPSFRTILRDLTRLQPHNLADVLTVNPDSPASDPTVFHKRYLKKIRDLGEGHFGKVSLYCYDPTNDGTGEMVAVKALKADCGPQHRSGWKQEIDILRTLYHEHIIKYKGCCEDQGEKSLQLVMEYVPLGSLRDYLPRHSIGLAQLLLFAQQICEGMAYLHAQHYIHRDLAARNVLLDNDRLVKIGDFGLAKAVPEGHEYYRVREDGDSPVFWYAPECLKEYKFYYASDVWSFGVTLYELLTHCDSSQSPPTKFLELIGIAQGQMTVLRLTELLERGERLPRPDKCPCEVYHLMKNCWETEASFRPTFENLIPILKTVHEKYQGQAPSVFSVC
Chain of JAK1 (P23458 whole entry): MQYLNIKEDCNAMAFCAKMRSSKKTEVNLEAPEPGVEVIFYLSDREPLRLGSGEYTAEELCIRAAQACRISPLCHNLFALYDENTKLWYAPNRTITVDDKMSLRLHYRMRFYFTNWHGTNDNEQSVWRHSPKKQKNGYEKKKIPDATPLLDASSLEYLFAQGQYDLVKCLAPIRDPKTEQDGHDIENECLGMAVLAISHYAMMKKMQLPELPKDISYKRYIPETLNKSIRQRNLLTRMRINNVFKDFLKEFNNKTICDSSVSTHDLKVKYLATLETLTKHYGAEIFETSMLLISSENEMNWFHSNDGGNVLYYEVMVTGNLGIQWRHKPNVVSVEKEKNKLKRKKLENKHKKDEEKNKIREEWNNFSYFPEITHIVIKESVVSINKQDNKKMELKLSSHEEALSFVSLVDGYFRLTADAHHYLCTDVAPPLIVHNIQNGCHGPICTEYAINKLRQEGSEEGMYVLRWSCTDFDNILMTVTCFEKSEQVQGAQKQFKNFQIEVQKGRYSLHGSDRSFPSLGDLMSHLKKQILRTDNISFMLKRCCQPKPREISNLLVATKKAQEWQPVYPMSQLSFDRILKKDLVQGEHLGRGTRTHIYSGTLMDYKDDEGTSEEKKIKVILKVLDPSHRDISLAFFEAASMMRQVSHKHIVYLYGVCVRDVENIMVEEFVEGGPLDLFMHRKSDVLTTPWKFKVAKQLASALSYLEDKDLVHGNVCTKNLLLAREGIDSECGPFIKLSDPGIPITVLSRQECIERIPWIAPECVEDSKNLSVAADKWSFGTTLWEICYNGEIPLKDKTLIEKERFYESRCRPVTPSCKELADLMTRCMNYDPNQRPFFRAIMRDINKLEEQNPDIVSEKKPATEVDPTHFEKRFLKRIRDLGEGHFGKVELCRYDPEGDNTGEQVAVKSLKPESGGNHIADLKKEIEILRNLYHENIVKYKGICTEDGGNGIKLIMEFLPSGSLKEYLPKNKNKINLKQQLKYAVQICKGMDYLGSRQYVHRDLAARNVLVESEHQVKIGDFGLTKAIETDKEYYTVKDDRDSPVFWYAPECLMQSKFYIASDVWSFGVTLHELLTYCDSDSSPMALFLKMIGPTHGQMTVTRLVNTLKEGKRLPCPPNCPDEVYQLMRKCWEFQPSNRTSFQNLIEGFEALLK

As to `CCOc1cnc(NC(C)=O)cc1Nc1cc(-c2cnn(C)c2)nc(C(C)(F)F)n1` [Example 302, N-(4-((2-(1,1-difluoroethyl)-6-(1-methyl-1H-pyrazol-4-yl)pyrimidin-4-yl)amino)-5-ethoxypyridin-2-yl)acetamide], the IC50 on JH2 domain of human Tyk2 (setting [1]) is ≤ 0.01 µM; against Tyk2 (MSD), 0.01 to 0.1 µM; against JAK2 (IL-3 stimulation, MSD), ≥ 1 µM; against JAK1 (IL-6 stimulation, MSD), ≥ 1 µM.

Consider `CCc1cc(Nc2cc(NC(C)=O)ncc2-c2ccc(COC)cn2)nc(C23COC(C2)C3)n1` [Example 566, N-(4′-((2-(2-oxabicyclo[2.1.1]hexan-4-yl)-6-ethylpyrimidin-4-yl)amino)-5-(methoxymethyl)-[2,3′-bipyridin]-6′-yl)acetamide], for which the IC50 is ≤ 0.01 µM on JH2 domain of human Tyk2 (setting [2]); ≤ 0.01 µM against Tyk2 (MSD); ≥ 1 µM against JAK2 (IL-3 stimulated, MSD); ≥ 1 µM at JAK1 (IL-6 stimulated, MSD).

As for `CC(=O)Nc1cc(Nc2cc(C)nc(C34COC(C3)C4)n2)c(-c2ccn(C)n2)cn1` [Example 552, N-(4-((2-(2-oxabicyclo[2.1.1]hexan-4-yl)-6-methylpyrimidin-4-yl)amino)-5-(1-methyl-1H-pyrazol-3-yl)pyridin-2-yl)acetamide], the IC50 at JH2 domain of human Tyk2 (setting [2]) was ≤ 0.01 µM; at Tyk2 (MSD) it was 0.01 to 0.1 µM; against JAK2 (IL-3 stimulated, MSD), ≥ 1 µM; against JAK1 (IL-6 stimulated, MSD) it was ≥ 1 µM.

Consider `CCc1cc(Nc2cc(NC(C)=O)ncc2-c2ccncn2)nc(C(C)(F)F)n1` [Example 799, N-(4-((2-(1,1-difluoroethyl)-6-ethylpyrimidin-4-yl)amino)-5-(pyrimidin-4-yl)pyridin-2-yl)acetamide], for which the 50% inhibitory concentration (IC50) at JH2 domain of human Tyk2 (setting [3]) was ≤ 0.01 µM; against Tyk2, ≤ 0.01 µM; against JAK2 (IL-3 stimulated) it was ≥ 1 µM; at JAK1 (IL-6 stimulated), ≥ 1 µM.

In the case of `CC(=O)Nc1cc(Nc2cc(C)nc(C(C)(F)F)n2)c(-c2ccc(C#N)cn2)cn1` [Example 145, N-(5-cyano-4′-((2-(1,1-difluoroethyl)-6-methylpyrimidin-4-yl)amino)-[2,3′-bipyridin]-6′-yl)acetamide], the IC50 on JH2 domain of human Tyk2 (setting [1]) was ≤ 0.01 µM; against Tyk2 (MSD), ≤ 0.01 µM; at JAK2 (IL-3 stimulation, MSD) it was ≥ 1 µM; on JAK1 (IL-6 stimulation, MSD), ≥ 1 µM.

In the case of `CC(=O)Nc1cc(Nc2ccnc(C(C)(F)F)n2)c(-c2cn(C)c(C#N)n2)cn1` [Example 707, N-(5-(2-cyanO1-methyl-1H-imidazol-4-yl)-4-((2-(1,1-difluoroethyl)pyrimidin-4-yl)amino)pyridin-2-yl)acetamide], the half-inhibitory concentration (IC50) at JH2 domain of human Tyk2 (setting [2]) is ≤ 0.01 µM; against Tyk2 (MSD), ≤ 0.01 µM; against JAK2 (IL-3 stimulated, MSD), ≥ 1 µM; at JAK1 (IL-6 stimulated, MSD), ≥ 1 µM.

For `CCOc1cnc(NC(C)=O)cc1Nc1nccc(C(C)(F)F)n1` [Example 3, N-(4-((4-(1,1-difluoroethyl)pyrimidin-2-yl)amino)-5-ethoxypyridin-2-yl)acetamide], the IC50 on JH2 domain of human Tyk2 (setting [1]) is ≤ 0.01 µM; against Tyk2 (MSD), 0.01 to 0.1 µM; at JAK2 (IL-3 stimulation, MSD), ≥ 1 µM; against JAK1 (IL-6 stimulation, MSD) it was ≥ 1 µM.

For the compound `CC(=O)Nc1cc(Nc2cc(C)nc(C(C)(F)F)n2)c(-c2ncc(OC(F)F)cn2)cn1` [Example 660, N-(4-((2-(1,1-difluoroethyl)-6-methylpyrimidin-4-yl)amino)-5-(5-(difluoromethoxy)pyrimidin-2-yl)pyridin-2-yl)acetamide], the IC50 on JH2 domain of human Tyk2 (setting [2]) is ≤ 0.01 µM; against Tyk2 (MSD) it was ≤ 0.01 µM; against JAK2 (IL-3 stimulated, MSD) it was ≥ 1 µM; against JAK1 (IL-6 stimulated, MSD) it was ≥ 1 µM.

Take `[2H]C([2H])([2H])C([2H])([2H])Oc1cnc(NC(C)=O)cc1Nc1cc(OC2CC2)nc(C(C)(F)F)n1` [Example 489, N-(4-((6-cyclopropoxy-2-(1,1-difluoroethyl)pyrimidin-4-yl)amino)-5-(ethoxy-d5)pyridin-2-yl)acetamide]: the 50% inhibitory concentration (IC50) at JH2 domain of human Tyk2 (setting [2]) is ≤ 0.01 µM; against Tyk2 (MSD), ≤ 0.01 µM; against JAK2 (IL-3 stimulated, MSD), ≥ 1 µM; on JAK1 (IL-6 stimulated, MSD) it was ≥ 1 µM.

With `CCc1cc(Nc2cc(NC(C)=O)ncc2-c2cnc(COC)cn2)nc(C(C)(F)F)n1` [Example 836, N-(4-((2-(1,1-difluoroethyl)-6-ethylpyrimidin-4-yl)amino)-5-(5-(methoxymethyl)pyrazin-2-yl)pyridin-2-yl)acetamide], the IC50 was ≤ 0.01 µM on JH2 domain of human Tyk2 (setting [3]), ≤ 0.01 µM at Tyk2, ≥ 1 µM against JAK2 (IL-3 stimulated) and ≥ 1 µM against JAK1 (IL-6 stimulated).

With `COc1cnc(NC(C)=O)cc1Nc1cc(C2CC2)nc(C(C)(F)F)n1` [Example 17, N-(4-((6-cyclopropyl-2-(1,1-difluoroethyl)pyrimidin-4-yl)amino)-5-methoxypyridin-2-yl)acetamide], the half-maximal inhibitory concentration (IC50) at JH2 domain of human Tyk2 (setting [1]) is ≤ 0.01 µM; against Tyk2 (MSD), 0.01 to 0.1 µM; against JAK2 (IL-3 stimulation, MSD) it was ≥ 1 µM; against JAK1 (IL-6 stimulation, MSD), ≥ 1 µM.

On to `CC(=O)Nc1cc(Nc2cc(OC3CC3)nc(C(C)(F)F)n2)c(O[C@H]2C[C@@H](F)C2)cn1` [Example 353, N-(4-((6-cyclopropoxy-2-(1,1-difluoroethyl)pyrimidin-4-yl)amino)-5-((1s,3s)-3-fluorocyclobutoxy)pyridin-2-yl)acetamide], for which the IC50 was ≤ 0.01 µM at JH2 domain of human Tyk2 (setting [1]); ≤ 0.01 µM against Tyk2 (MSD); ≥ 1 µM against JAK2 (IL-3 stimulation, MSD); ≥ 1 µM against JAK1 (IL-6 stimulation, MSD).

With `CCc1cc(Nc2cc(NC(C)=O)ncc2-c2coc(C)n2)nc(C(C)(F)F)n1` [Example 584, N-(4-((2-(1,1-difluoroethyl)-6-ethylpyrimidin-4-yl)amino)-5-(2-methyloxazol-4-yl)pyridin-2-yl)acetamide], the IC50 at JH2 domain of human Tyk2 (setting [2]) was ≤ 0.01 µM; against Tyk2 (MSD), ≤ 0.01 µM; on JAK2 (IL-3 stimulated, MSD), ≥ 1 µM; at JAK1 (IL-6 stimulated, MSD) it was ≥ 1 µM.

`CC(=O)Nc1cc(Nc2ccnc(C(C)(F)F)n2)c(-c2ncc(F)cn2)cn1` [Example 185, N-(4-((2-(1,1-difluoroethyl)pyrimidin-4-yl)amino)-5-(5-fluoropyrimidin-2-yl)pyridin-2-yl)acetamide]: the IC50 at JH2 domain of human Tyk2 (setting [1]) was ≤ 0.01 µM; at Tyk2 (MSD), 0.01 to 0.1 µM; at JAK2 (IL-3 stimulation, MSD), ≥ 1 µM; at JAK1 (IL-6 stimulation, MSD), ≥ 1 µM.

Consider `CC(=O)Nc1cc(Nc2cc(C)nc(C(C)(C)F)n2)c(-c2ccn3ncnc3n2)cn1` [Example 534, N-(5-([1,2,4]triazolo[1,5-a]pyrimidin-5-yl)-4-((2-(2-fluoropropan-2-yl)-6-methylpyrimidin-4-yl)amino)pyridin-2-yl)acetamide], for which the IC50 at JH2 domain of human Tyk2 (setting [2]) is ≤ 0.01 µM; on Tyk2 (MSD) it was ≤ 0.01 µM; on JAK2 (IL-3 stimulated, MSD) it was ≥ 1 µM; at JAK1 (IL-6 stimulated, MSD) it was ≥ 1 µM.

On to `CC(=O)Nc1cc(Nc2cc(C)nc(C(C)(F)F)n2)c(-c2ccn(C)n2)cn1` [Example 218, N-(4-((2-(1,1-difluoroethyl)-6-methylpyrimidin-4-yl)amino)-5-(1-methyl-1H-pyrazol-3-yl)pyridin-2-yl)acetamide], for which the IC50 is ≤ 0.01 µM on JH2 domain of human Tyk2 (setting [1]); ≤ 0.01 µM against Tyk2 (MSD); ≥ 1 µM at JAK2 (IL-3 stimulation, MSD); ≥ 1 µM on JAK1 (IL-6 stimulation, MSD).

Consider `CC(=O)Nc1cc(Nc2ccnc(C(C)(F)F)n2)c(-c2ccc(OC(F)F)cn2)cn1` [Example 826, N-(4′-((2-(1,1-difluoroethyl)pyrimidin-4-yl)amino)-5-(difluoromethoxy)-[2,3′-bipyridin]-6′-yl)acetamide], for which the IC50 on JH2 domain of human Tyk2 (setting [3]) is ≤ 0.01 µM; against Tyk2 it was ≤ 0.01 µM; on JAK2 (IL-3 stimulated) it was ≥ 1 µM; against JAK1 (IL-6 stimulated), ≥ 1 µM.

Regarding `CC(=O)Nc1cc(Nc2cncc(C(C)(F)F)n2)c(-c2ccn(C)n2)cn1` [Example 212, N-(4-((6-(1,1-difluoroethyl)pyrazin-2-yl)amino)-5-(1-methyl-1H-pyrazol-3-yl)pyridin-2-yl)acetamide], the half-inhibitory concentration (IC50) on JH2 domain of human Tyk2 (setting [1]) is ≤ 0.01 µM; on Tyk2 (MSD), ≤ 0.01 µM; against JAK2 (IL-3 stimulation, MSD), 0.1 to 1 µM; against JAK1 (IL-6 stimulation, MSD), ≥ 1 µM.

Take `COCCOc1cnc(NC(C)=O)cc1Nc1cc(C)nc(C(C)(F)F)n1` [Example 22, N-(4-((2-(1,1-difluoroethyl)-6-methylpyrimidin-4-yl)amino)-5-(2-methoxyethoxy)pyridin-2-yl)acetamide]: the IC50 is ≤ 0.01 µM on JH2 domain of human Tyk2 (setting [1]); ≤ 0.01 µM against Tyk2 (MSD); ≥ 1 µM against JAK2 (IL-3 stimulation, MSD); ≥ 1 µM on JAK1 (IL-6 stimulation, MSD).

Take `CC(=O)Nc1cc(Nc2cc(C)nc(C(C)(F)F)n2)c(-c2cc3n(n2)CCOC3)cn1` [Example 528, N-(4-((2-(1,1-difluoroethyl)-6-methylpyrimidin-4-yl)amino)-5-(6,7-dihydrO4H-pyrazolo[5,1-c][1,4]oxazin-2-yl)pyridin-2-yl)acetamide]: the half-maximal inhibitory concentration (IC50) at JH2 domain of human Tyk2 (setting [2]) was ≤ 0.01 µM; against Tyk2 (MSD), ≤ 0.01 µM; at JAK2 (IL-3 stimulated, MSD), ≥ 1 µM; against JAK1 (IL-6 stimulated, MSD), ≥ 1 µM.

Take `CC(=O)Nc1cc(Nc2ccnc(C(C)(F)F)n2)c(-c2cnn(C(C)C)n2)cn1` [Example 708, N-(4-((2-(1,1-difluoroethyl)pyrimidin-4-yl)amino)-5-(2-isopropyl-2H-1,2,3-triazol-4-yl)pyridin-2-yl)acetamide]: the IC50 on JH2 domain of human Tyk2 (setting [2]) was ≤ 0.01 µM; at Tyk2 (MSD), ≤ 0.01 µM; against JAK2 (IL-3 stimulated, MSD) it was ≥ 1 µM; at JAK1 (IL-6 stimulated, MSD), ≥ 1 µM.

`CC(=O)Nc1cc(Nc2cc(C)nc(C(C)(F)F)n2)c(-c2ccc(N(C)C)cn2)cn1` [Example 652, N-(4′-((2-(1,1-difluoroethyl)-6-methylpyrimidin-4-yl)amino)-5-(dimethylamino)-[2,3′-bipyridin]-6′-yl)acetamide]: the IC50 is ≤ 0.01 µM at JH2 domain of human Tyk2 (setting [2]); ≤ 0.01 µM on Tyk2 (MSD); ≥ 1 µM on JAK2 (IL-3 stimulated, MSD); ≥ 1 µM against JAK1 (IL-6 stimulated, MSD).

(Values after US20260028365A1 (BIOGEN MA INC., priority 2022, published 2026).)
